Where “and” joins values, the source holds several entries; their conditions need not be identical. Equal values may be shown once. Entries after “also recorded” stand apart in the source; their conditions may differ.
Legend:
[1] = test system: wireworm of genus Agriotes; test: Wireworm field trial in Italy: insect damage (DAMINS); assay type: in vivo
Description: Evaluation took place at emergence (E), at V3 stage (=3 leaves unfolded) and at V5 stage (=5 leaves unfolded). The following characteristics have been phenotyped: phytotoxicity (PHYGEN) at stage E, V3 and V5 in % per plot, vigor (VIGOR) at stage E, V3 and V5 in ratings from 1-10 (10 is best), insect damage (DAMINS) at stage V5 in plants per row (left DAMINS column in Table 7) and in % per row (right DAMINS column in Table 7).

[2] = LC-MS-MS determination of denatonium benzoate in corn plants grown from treated seed; assay type: in vivo, Zea mays; details: for Bitrex concentration: first leaf of corn seedling
Description: To determine, if denatonium benzoate could be systemic (taken up by the plant), a Liquid Chromatography with tandem mass spectrometry (LC-MS-MS) was performed, which is a powerful analytical technique that combines the separating power of liquid chromatography with the highly sensitive and selective mass analysis capability of triple quadrupole mass spectrometry. Therefore, we used 1) seedlings just after field emergence to determine the content of denatonium benzoate in the complete plant and in the sprout separately (Table 3), as well as 2) middle-aged plants (V6-V8), where the leaves have been investigated (Table 4).
Beside above experiments the concentration of Bitrex in the first leaf of the seedling have been measured wherein different dosages of Bitrex have been applied to the seed. The higher the application rate, the higher was the Bitrex concentration in the tested leaf tissue.

[3] = test system: crows; test: Field trials on efficacy as a bird repellent, corn seed, plant stand counts; assay type: in vivo, Corvus; details: 0.4 g/50.000 seeds with Redigo M or Maxim XL, 0.8 g/50.000 seeds stand-alone, plant stand counts 3 weeks after emergence, listed as denatonium benzoate
Excerpt: To evaluate the efficacy of different substances as a bird repellent, 25 locations throughout Europe have been identified with a potentially high pressure of bird damage. 17 different substances (DSM RD9103 BRP, Chili extract, Black Cumin oil, Yucca extract, Mentha pulegium extract, Aluminium-Ammonium-sulfate, Hops extract, fat encapsulated plant extracts, alginate encapsulated plant extracts, Tefluthrin, Thiram, Ziram, Methiocarb, yellow colour substance, denatonium benzoate, SatecWFO20, Redigo M, Maxim XL) have been chosen to evaluate differences on feeding behavior of crows. Three chemical references have been included in the trial: Mesurol liquid (Active substance Methiocarb), Korit (Active Substance Ziram) and TMTD (Active Substance Thiram). Mesurol liquid (Methiocarb) was the standard bird repellent in the past, with a European expiry date of the 3rd of April 2020. TMTD (Thiram) can be used until 30th of January 2020. Korit (Ziram) expires in 2021.
Denatonium benzoate has been tested in 2 different concentrations: 0.4 g/50.000 seeds in combination with standard fungicides Redigo M and Maxim XL and 0.8 g/50.000 seeds as a stand-alone. […]
3 weeks after emergence, 9 locations with bird damage have been identified. Plant stand counts have been assessed and summarized.

[4] = test system: wireworm of genus Agriotes; test: Wireworm repellent pot assay on corn in greenhouse; assay type: in vivo; details: eight days after sowing
Description: Testing took place in pot assays. Per pot four corn seeds were sown (see FIG. 2A). In each pot four wireworm of genus Agriotes were placed in a central cavity of 5 cm depth (see FIG. 2B). […] The seeds in the pots were germinated and seedlings were grown under controlled conditions in greenhouse.
Eight days after sowing the plant biomass (FIG. 3; Table 6) as well as seed damage (FIG. 4A; Table 6) were assessed.

[5] = test system: wireworm of genus Agriotes; test: Wireworm repellent pot assay on corn in climate chamber; assay type: in vivo; details: climate chamber 18° C. day/12° C. night; eighteen days after sowing
Description: The denatonium benzoate (Bitrex) was tested in concentrations of 0.5 g/unit (wherein 1 unit=50.000 seeds), 1 g/unit and 5 g/unit, either without any other plant protection product (variants 3 and 4) or with RedigoM (active ingredients 100 g/l Prothioconazole (PRO) and 20 g/l Metalaxyl (MTL); (variants 6-8). Sticker was always Sepiret 9290 red, whereby 30 ml/unit has been applied. Variant 1 is the negative control wherein no treatment of the seeds took place, variant 2 is another control only treated with the sticker. Variant 5 is RedigoM and sticker without Bitrex. Variants 9 and 10 serve as positive control. Beside RedigoM and the sticker, the seeds have been treated with either with Force 20 CS (active ingredient: tefluthrin (TEF); or with Poncho® 600 (active ingredient: clothianidin (CLO). Both Force 20 CS and Poncho® 600 are standard treatments against wireworm infestation. All testing were conducted on corn variety Amavit of KWS SAAT SE & Co. KGaA.
Testing has been repeated in climate chambers in order to ensure high humidity and moderate temperatures which results in optimal environmental condition for the wireworm. Thereby, a high level of insect pressure on the seeded corn should be simulated. […]
Eighteen days after sowing the plant biomass (Table 6) as well as seed damage (FIG. 4B; Table 6) were assessed.

[6] = test system: corvid; test: Additional bird repellent field trials at three locations in Germany, plant stand counts; assay type: in vivo, Corvus; details: corn seed, denatonium benzoate 1 g/50.000 seeds
Excerpt: The bird repellent effect of denatonium benzoate has further been evaluated in additional field trials at three different location in Germany. Denatonium benzoate alone (DNB) or denatonium benzoate in combination with a solution of micronutrients (DNB+HA450) mixed with a sticker have been applied to the seeds. Denatonium benzoate has been applied in a concentration of 1 g/50.000 seeds. Three chemical references have been included in the trials: Korit (active substance: Ziram), Curb Crop Garden Powder with Sphere's formulation (active substance: aluminium ammonium sulphate) and Schwefal (active substance: organic sulfur). As negative control untreated seed has been used.
Plant stand counts have been assessed and summarized. […] Results of earlier field trials have been confirmed.

[7] = test system: crows; details: wheat seed treatment; cited from earlier work

CC[N+](CC)(CC(=O)Nc1c(C)cccc1C)Cc1ccccc1.O=C([O-])c1ccccc1 [Bitrex, N-Benzyl-2-(2,6-dimethylanilino)-N, N-diethyl-2-oxoethan-1-aminium benzoate]
DAMINS insect damage, stage V5 ([1]; 5 g Bitrex per 50,000 seeds): 6.8 plants per row and 5.62 % per row
DAMINS insect damage, stage V5 ([1]; 10 g Bitrex per 50,000 seeds): 7.3 plants per row and 6.07 % per row
DAMINS insect damage, stage V5 ([1]; 20 g Bitrex per 50,000 seeds): 5.8 plants per row and 4.79 % per row
μg DNB/plant or sprout ([2]; corn seedlings just after field emergence, complete plants): 5.87 μg DNB/plant or sprout
concentration in sprouts ([2]; corn, early stage): 200-800 ppb
concentration in the complete plant ([2]; corn, early stage): 10-20 ppm
Bitrex concentration ([2]; 0.8 g/unit applied to seed): 36.8 ng/g
Bitrex concentration ([2]; 1 g/unit applied to seed): 96.2 ng/g and 88.7 ng/g and 75.2 ng/g and 55.0 ng/g and 70.4 ng/g and 97.1 ng/g
Bitrex concentration ([2]; 2 g/unit applied to seed): 178.2 ng/g and 155.6 ng/g
concentration in leaves ([2]; middle-aged corn plants): 5-20 ppb
Final Conc. ([2]; middle-aged corn plants (V6-V8), leaves, sample 14 DNB 0.8g, plants P1-P3, listed as DNB): 5.49 ppb/ng/g and 5.34 ppb/ng/g and 5.46 ppb/ng/g
efficiency as corvid repellent for corn [3]: excellent effect; also recorded: comparable or even better than the best bird repellents like Thiram, Korit and Mesurol
biomass of plantlets compared with controls [4]: comparable or even more biomass than control plants without wireworm infestations
effect on development of biomass, seed damages and seedling damages [5]: positive effect
efficiency as corvid repellent for corn [6]: excellent effect; also recorded: comparable with the best bird repellents like Korit and Sphere
corvid repellent effect in wheat [7]: only provided a modest improvement

Reference: patent US20230086007A1, “USE OF DENATONIUM BENZOATE AS A SEED TREATMENT FOR CROPS AS BIRD AND/OR INSECT REPELLENT” (KWS SAAT SE & Co. KGaA, priority 2020, published 2023)
